From patent publication US9572813B2, “Antiviral agent” (SHIONOGI & CO., LTD., priority 2001, dated 2017)

How the values were obtained:
integrase = integrase (Human immunodeficiency virus type 1 group M subtype B, UniProt P04585); test: Integrase inhibition assay (microtiter plate strand transfer, substrate DNA/target DNA, anti-digoxigenin ELISA); format: biochemical; conditions: concentration of the compound at percent inhibition 50%; 30° C. for 1 hour; OD at 405 nm; read-out: IC50 (converted)
Description: The inhibitory activities against integrase of the compounds in the present invention have been determined by the assay described below.
(1) Preparation of DNA Solutions.
Substrate DNA and target DNA, which sequences were indicated below, were synthesized by Amersham Pharmacia Biotech and dissolved in KTE buffer (composition: 100 mM KCl, 1 mM EDTA, 10 mM Tris-HCl (pH 7.6)) at concentration of 2 pmol/μl and 0.5 pmol/μl, respectively. The DNA solutions were annealed with each complement by slowly cooling after heating.
(2) Calculations of the Percent Inhibitions (the IC50 Values of Test Compounds)
Streptavidin, obtained from Vector Laboratories, was dissolved in 0.1 M carbonate buffer (composition: 90 mM Na2CO3, 10 mM NaHCO3) at concentration of 40 µg/ml. After coating each well of microtiter plates (obtained from NUNC) with 50 μL of the above solution at 4° C. over night, each well was washed twice with PBS (composition: 13.7 mM NaCl, 0.27 mM KCl, 0.43 mM Na2HPO4, 0.14 mM KH2PO4) and blocked with 300 μl of 1% skim milk in PBS for 30 min. Additionally, each well was washed twice with PBS and added 50 μl of substrate DNA solution (0.04 pmol/μl) diluted to one fiftieth with NTE buffer (composition: 1M NaCl, 10 mM Tris-HCl (pH8.0), 1 mM EDTA). The microtiter plates were kept at room temperature for 30 min. Then, each well was washed twice with PBS and once with H2O.
Subsequently, in the each well prepared above were added 45 μl of the reaction buffer prepared from 12 μl of the buffer (composition: 150 mM MOPS (pH 7.2), 75 mM MnCl2, 50 mM 2-mercaptoethanol, 25% glycerol, 500 μg/ml bovine serum albumin-fraction V), 1 μl of target DNA (5 pmol/μl), and 32 μl of the distilled water. Additionally, 6 μl of either a test compound in DMSO or DMSO for positive control (PC) was mixed with the above reaction buffer, then 9 μl of an integrase solution (30 pmol) was added and mixed well. In the well of negative control (NC) was added 9 μl of the integrase dilution buffer (composition: Hepes (pH7.6), 400 mM potassium glutamate, 1 mM EDTA, 0.1% NP-40, 20% glycerol, 1 mM DTT, 4M urea).
The microtiter plates were incubated at 30° C. for 1 hour. The reaction solution was removed and each well was washed twice with PBS. Subsequently, each well of the microtiter plates was filled with 100 μl of anti-digoxigenin antibody labeled with alkaline phosphatase (Sheep Fab fragment: obtained from Boehringer) and incubated at 30° C. for 1 hour. Then, each well was washed twice with 0.05% Tween20 in PBS and once with PBS. Next, 150 μl of the Alkaline phosphatase reaction buffer (composition: 10 mM p-Nitrophenylphosphate (obtained from Vector Laboratories), 5 mM MgCl2, 100 mM NaCl, 100 mM Tris-HCl (pH 9.5)) was added in each well. The microtiter plates were incubated at 30° C. for 2 hours. The optical density (OD) at 405 nm of each well was measured and the percent inhibition was determined by the following expression. The percent inhibition (%)=100[1−{(C abs.−NC abs.)/(PC abs.−NC abs.)}] • C abs.; the OD of the well of the • NC abs.: the OD of the negative control (NC) • PC abs.: the OD of the positive control (PC)
When the percent inhibition (%) is X % at the concentration of x μg/ml and the percent inhibition (%) is Y % at the concentration of y μg/ml, one of which is more than 50% and the other is less than 50%, IC50 can be determined by the following expression. IC50(μg/ml)=x−{(X−50),(x−y)/(X−Y)}
Compound No. in the Table 1 is the same as compound No. of the above example.

SMILES | melting point [°C] | IC50 (integrase) [nM]
Cn1ncnc1-c1oc2cccc(OCc3ccc(F)cc3)c2c(=O)c1O [Compound C-39, 5-[(4-fluorobenzyl)oxy]-3-hydroxy-2-(2-methyl-2H-[1,2,4]triazole-3-yl)-4H-1-benzopyrane-4-one] | 215 to 216 | 626
COC(C)(C)c1cc(Cc2ccc(F)cc2)c(C(=O)C2=C(O)C(=O)N(C)C2)o1 [Compound A-158, 4-[3-(4-Fluorobenzyl)-5-(1-methoxy-1-methylethyl)furan-2-carbonyl]-3-hydroxy-1-methyl-1,5-dihydropyrrole-2-one] | 144 to 145 | 1730
CN1CC(c2ncc(OCc3ccc(F)cc3)cn2)=C(O)C1=O [Compound B-68, 4-[5-(4-fluorobenzyloxy)pyrimidine-2-yl]-3-hydroxy-1-methyl-1,5-dihydropyrrole-2-one] | 185 to 187 | 698
CN1CC(c2cc(OCc3ccccc3)ncn2)=C(O)C1=O [Compound B-12, 4-(6-Benzyloxypyrimidine-4-yl)-3-hydroxy-1-methyl-1,5-dihydropyrrole-2-one] | 203 to 204 | 975
O=c1c(O)c(-c2ccccn2)oc2cccc(OCc3ccc(F)cc3)c12 [Compound C-22, 5-[(4-fluorobenzyl)oxy]-3-hydroxy(2-pyridine-2-yl)-4H-1-benzopyrane-4-one] | 213 | 1320
O=c1c(O)c(-c2nnc(Cc3ccc(F)cc3)o2)[nH]c2ccccc12 [Compound D-5, 2-[5-(4-fluorobenzyl)-[1,3,4]oxadiazole-2-yl]-3-hydroxy-1H-quinoline-4-one] | > 300 | 1330
CC(C)N1CC(C(=O)c2ccc(Cc3ccc(F)cc3)o2)=C(O)C1=O [Compound A-7, 4-[5-(4-Fluorobenzyl)furan-2-carbonyl]-3-hydroxyl-1-isopropyl-1,5-dihydropyrrole-2-one] | 155 to 157 | 2210
Cc1cc(=O)c(O)c(C(=O)c2ccc(Cc3ccc(F)cc3)o2)o1 [Compound E-16, 2-[5-(4-fluorobenzyl)furan-2-carbonyl]-3-hydroxy-6-methylpyrane-4-one] | 173 to 175 | 366
O=C(c1ccc(Cc2ccc(F)cc2)o1)c1occc(=O)c1O [Compound E-8, 2-[5-(4-fluorobenzyl)furan-2-carbonyl]-3-hydroxypyrane-4-one] | 157 to 159 | 445
Cn1ccc(C(=O)c2ccc(Cc3ccc(F)cc3)o2)c(O)c1=O [Compound J-4, 4-[5-(4-fluorobenzyl)furan-2-carbonyl]-3-hydroxy-1-methyl-1H-pyridine-2-one] | 145 to 147 | 794
CN1CC(c2cc(CCc3ccccc3)ncn2)=C(O)C1=O [Compound B-6-a, 3-Hydroxy-1-methyl-4-(6-phenethylpyrimidine-4-yl)-1,5-dihydropyrrole-2-one] | 211 to 213 | 5420
O=C1C(O)=C(c2cc(CCc3ccccc3)ncn2)CN1C1CCCCC1 [Compound B-6-d, 1-Cyclohexyl-3-hydroxy-4-(6-phenethylpyrimidine-4-yl)-1,5-dihydropyrrole-2-one] | 248 to 250 | 6600
CN1CC(C(=O)c2occc2Cc2ccc(F)cc2)=C(O)C1=O [Compound A-50, 4-[3-(4-Fluorobenzyl)furan-2-carbonyl]-3-hydroxy-1-methyl-1,5-dihydropyrrole-2-one] | 208 to 210 | 507
Cc1[nH]cc(C(=O)c2ccc(Cc3ccc(F)cc3)o2)c(=O)c1O [Compound M-6, 5-[5-(4-fluorobenzyl)furan-2-carbonyl]-3-hydroxy-2-methyl-1H-pyridine-4-one] | 190 to 192 | 8860
O=C(C1=C(O)C(=O)N(C2CC2)C1)c1ccc(Cc2ccc(F)cc2)o1 [Compound A-17, 1-Cyclopropyl-4-[5-(4-fluorobenzyl)furan-2-carbonyl]-3-hydroxy-1,5-dihydropyrrole-2-one] | 158 to 159 | 2340
CN1CC(c2ccc(Cc3ccc(F)cc3)cn2)=C(O)C1=O [Compound B-29, 4-[5-(4-Fluorobenzyl)-pyridine-2-yl]-3-hydroxy-1-methyl-1,5-dihydropyrrole-2-one] | 204 to 206 | 402
CC(C)Oc1cc(F)ccc1Cc1ccc(C(=O)C2=C(O)C(=O)N(C)C2)o1 [Compound A-141-k, 4-[5-(4-Fluoro-2-isopropoxybenzyl)furan-2-carbonyl]-3-hydroxy-1-methyl-1,5-dihydropyrrole-2-one] | 126 to 129 | 1820
